Experimental data taken from patent US10940240B2, “Catheter locking solution and catheter locking therapy” (Medical Components, Inc., priority 2016, dated 2021).

Tested on: Staphylococcus aureus CIP 65.25 (methicillin resistant)
Assay: anti-biofilm assay on 24 h biofilms formed on Chronoflex catheter segments in microfermentors
Format: cell-based
Conditions: for effect on bacterial survival / lysis of bacterial cells: biofilm exposed 24 hours at 37° C., complete lysis = under the threshold of detection (10 CFU per KT segment); for number of viable cells on catheter segment (Moyenne): biofilm on catheter segment exposed to solution for 24 hours at 37° C., triplicate, limit of detection 10 CFU per KT segment; for effect in lysing the bacteria compared with 15 v/v % EtOH: EtOH alone
Protocol: For example, preliminary assay testing of anti-biofilm properties of a TCEA solution comprising a 10.0 w/v % concentration of trisodium citrate at and 15.0, 20.0 and 25.0 v/v % concentrations of ethyl alcohol (i.e., ethanol or EtOH) were conducted. The testing was performed in the following manner.
Ethanol 15%, 20% and 25% (v/v)+trisodium citrate 10% (w/v)
Controls: Ethanol 15%, 20% and 25% • Trisodium citrate 10% • Water for injection The material tested were segments, each 1 centimeter long, of sterile catheters Chronoflex (“catheter segments”). The strains used were Staphylococcus aureus CIP 65.25 (methicillin resistant).
Biofilms were formed in aerated microfermentors with catheter segments fixed onto an internal removable glass slide of the microfermentors. Strains from frozen stocks were cultivated in Trypticase Soja broth (“TSB”). An inoculum of 10^8 cells was used to inoculate microfermentors containing the catheter segments. A continuous flow of 54 milliliters per hour (“mL/h”) of TSB and constant aeration with sterile pressed air at 0.3 bar were used to obtain continuous flow-through culture conditions. After 24 hours of incubation, the catheter segments were removed from the incubator and separated from their respective microfermentor device. Each catheter segment was then carefully rinsed in 1 mL of saline.
To determine the number of viable cells within the biofilms formed onto the catheter segments before being subjected to or made to be in contact with the test solutions (i.e., before treatment), the biofilms (triplicate for each strain) were resuspended in TSB by sonication and vortexing. Serial dilutions of the resulting suspensions were performed and plated onto appropriate agar plates to determine the number of viable cells after overnight incubation at 37 degrees Celsius (“° C.”).
In parallel, catheter segments to be tested were placed in a tube containing 1 mL of the different lock solutions: (i) ethanol at 15%, 20% and 25% (vol/vol); (ii) trisodium citrate at 10% (vol/vol); (iii) ethanol/tri sodium citrate mixing solutions (15%-10%, 20%-10%, 25%-10% (vol/vol)), wherein ethanol concentrations were 15%, 20%, and 25%, and trisodium citrate concentration was 10%; and (iv) water for injection as control. For every organism, the experiments were repeated in triplicate, and during each treatment assay catheter segments were exposed to the different solutions for 24 hours at 37° C. Subsequently, the catheter segments were removed, rinsed once with saline, and the number of adherent viable microorganisms determined, as described above. In FIG. 1, the number of viable cells is expressed as Colony Forming Unit (“CFU”), and the bacteria count is expressed as a decimal logarithm, log 10. (Note: FIG. 1 expresses the CFU as UFC, which is an acronym for unite formant colonie and is the same unit of measure as CFU.). The limit of detection in the experimental conditions is 10 CFU per KT segment, thus the threshold of detection is 10 CFU per KT segment. KT is a catheter sample used during testing, and its length can range from 3 to 5 centimeters. A KT can be a specimen of a catheter that have been cut (1 meter long usually) and placed into a microfermentor apparatus so that biofilms are formed at a surface of the catheter. Once the biofilm is formed and place into contact with the catheter lock solution to be tested, a measured the number of bacterial viable cells still present at the surface of the catheter is obtained. The limit of detection is 10 Colony Forming Units per specimen of catheter.
During the study, the disclosed catheter locking solution had been tested to ascertain whether it can eradication viable bacterial and prevent regrowth of biofilm. […] The catheter locking solution had been tested against Staphylococcus aureus (methicillin resistant).

Compound | effect on bacterial survival / lysis of bacterial cells | number of viable cells on catheter segment (Moyenne) [CFU] | effect on bacterial survival / lysis of bacterial cells (listed as EtOH alone (at 15 v/v %)) | effect on bacterial survival / lysis of bacterial cells (listed as EtOH alone, at 15 v/v % concentration) | effect on bacterial survival / lysis of bacterial cells (listed as Ethyl alcohol at a concentration of 15.0 v/v %) | bacterial cells after treatment (decreased from 1.00 E+07) (preliminary in vitro testing) | effect in lysing the bacteria compared with 15 v/v % EtOH
O=C([O-])CC(O)(CC(=O)[O-])C(=O)[O-].[Na+].[Na+].[Na+] [citrate 10% (m/v), trisodium citrate] | no effect on the bacterial survival | 3.64E+06 |  |  |  |  | 
ethyl alcohol [EtOH 15% (v/v)] |  | 2.12E+02 | did not lyse all the bacterial cells | did not lyse all the bacterial cells | did not lyse all bacterial cells | 1.00E+02 | 
ethyl alcohol [EtOH 20% (v/v)] |  | 1.00E+01 |  |  |  |  | significantly greater effect in lysing the bacteria
ethyl alcohol [EtOH 25% (v/v)] |  | 1.00E+01 |  |  |  |  | significantly greater effect in lysing the bacteria
